Test results as given in patent US9945862B2, “Biomarkers for predicting and assessing responsiveness of thyroid and kidney cancer subjects to lenvatinib compounds” (Eisai R&D Management Co., Ltd., priority 2011, dated 2018).

Tested on: differentiated thyroid cancer patients
Assay: Best overall response / tumor response in differentiated thyroid cancer patients treated in phase II with E7080, by tumor mutation status
Assay type: in vivo, human
Source text: This experiment was directed at identifying amino acid mutations that are useful in predicting whether subjects respond to treatment with E7080 using three criteria of response: best overall response, tumor shrinkage, and progression free survival.
Tissue samples were obtained at surgery before the patients had received any therapy comprising E7080 and were routinely processed with formalin fixed, paraffin embedded tissues (FFPE). The protocol that was used was approved by the institutional review board, and informed consent was obtained from each subject. Tumor tissue samples from 27 patients, for which tissues were available, were used for mutation analysis. DNA was isolated from FFPE tumor blocks collected from patients participating in the trial. Genomic DNA was extracted from two to five 10 micron unstained sections by deparaffinization and Qiagen DNA Mini Kit Tissue Protocol with minor modification. For mutation detection, the SEQUENOM® (San Diego, Calif.) platform and the OncoCarta™ Panel v1.0 and OncoCarta™ Panel v3.0 were used (see, www.sequenom.com/Files/Genetic-Analysis—Graphics/All-Application—PDFs/AssayExplorer2010_1110-Web/). Sequenom's OncoCarta™ Panels are a set of pre-designed and pre-validated assays for efficient mutation screening. The OncoCarta™ Panel v1.0 genes and the number of mutations (in parentheses) are: ABL1 (14); AKT1 (7); AKT2 (2); BRAF (25); CDK4 (2); EGFR (40); ERBB2 (9); FGFR1 (2); FGRF3 (7); FLT3 (3); HRAS (10); JAK2 (1); KIT (32); KRAS (16); MET (5); NRAS (19); PDGFRA (11); PIK3CA (14); and RET (6). The OncoCarta™ Panel v3.0 genes and the number of mutations (in parentheses) are: ABL1 (2) AKT1 (1); APC (12); BRAF (19); CDKN2A (7); CSF1R (6); CTTNB1 (28); EGFR (32); ERBB2 (2); FLT3 (3); HRAS (2); JAK3 (3); KIT (3); KRAS (5); MET (6); MLH1 (1); MYC (6); PDGFRA (11); PIK3CA (4); PTEN (14); RB1 (11); RET (13); SRC (1); STK11 (12); P53 (7); and VH1 (7). […]
DNA was amplified using the OncoCarta™ PCR primer pools, unincorporated nucleotides were inactivated by shrimp alkaline phosphatase (SAP), and a single base extension reaction was performed using extension primers that hybridize immediately adjacent to the mutations and a custom mixture of nucleotides. Salts were removed by the addition of a cation exchange resin. Multiplexed reactions were spotted onto the SpectroChipII, and mutations, if present, were resolved by MALDI-TOF on the Compact Mass Spectrometer (Sequenom®, San Diego, Calif.). The OncoCarta™ Panel v1.0 (Sequenom®, San Diego, Calif.) consists of 24 pools of primer pairs and 24 pools of extension primers, and has the capacity to detect 225 mutations in 19 genes. The OncoCarta™ Panel v 3.0 consists of 24 pools of primer pairs and 24 pools of extension primers, and has the capacity to detect 218 mutations in 26 genes. Each pool consists of 5-9 primer pairs in the PCR reaction. Two types of assays have been designed in the OncoCarta panel, referred to as simple and complex. The simple assays are those in which a single assay is able to detect the amino acid changes at that codon. The complex assays are those that require more than one assay to identify codon changes or deletions and insertion, and thus are able to detect multiple different amino acid substitutions or deletions. An example of a complex assay involves the use of the KRAS_1 and KRAS_2 assays, which interrogates 2 different nucleotide positions within codon 12 and together identify all codon 12 amino acid changes. In the KRAS G12R mutation, the mutant allele has the codon CGT (Arginine) in contrast to the wild type allele which has the GGT (Glycine) codon. […]

[1] = BRAF.KRAS.NRAS (any of gene) MU
[2] = BRAF.KRAS.NRAS (any of gene) WT
[3] = BRAF.KRAS.NRAS.VHL (any of gene) MU
[4] = BRAF.KRAS.NRAS.VHL (any of gene) WT

Q: How did the “Number of patients with BOR PD” value [1] turn out when `COc1cc2nccc(Oc3ccc(NC(=O)NC4CC4)c(Cl)c3)c2cc1C(N)=O` [E7080, 4-(3-chloro-4-(cyclopropylaminocarbonyl)aminophenoxy)-7-methoxy-6-quinolinecarboxamide] was run?
A: Its value is 0.

Q: And the “Number of patients with BOR PR” value [1]?
A: The value was 10.

Q: And the “Number of patients with BOR SD” value [1]?
A: The value was 1.

Q: And the “Number of patients with BOR PD” value [2]?
A: Its value is 2.

Q: What about the “Number of patients with BOR PR” value [2] of the same compound?
A: Its value is 3.

Q: And the “Number of patients with BOR SD” value [2]?
A: The value was 6.

Q: And the “Number of patients with BOR PD” value [3]?
A: The value was 1.

Q: What about the “Number of patients with BOR PR” value [3] of the same compound?
A: Its value is 10.

Q: And the “Number of patients with BOR SD” value [3]?
A: Its value is 1.

Q: And the “Number of patients with BOR PD” value [4]?
A: The value was 1.

Q: What about the “Number of patients with BOR PR” value [4] of the same compound?
A: Its value is 3.

Q: And the “Number of patients with BOR SD” value [4]?
A: Its value is 6.

Q: And the “Number of patients with BOR PD” value (BRAF.KRAS.VHL (any of gene) MU)?
A: Its value is 2.

Q: What about the “Number of patients with BOR PR” value (BRAF.KRAS.VHL (any of gene) MU) of the same compound?
A: Its value is 8.

Q: What about the “Number of patients with BOR SD” value (BRAF.KRAS.VHL (any of gene) MU) of the same compound?
A: Its value is 0.

Q: And the “Number of patients with BOR PD” value (BRAF.KRAS.VHL (any of gene) WT)?
A: The value was 0.

Q: What about the “Number of patients with BOR PR” value (BRAF.KRAS.VHL (any of gene) WT) of the same compound?
A: Its value is 8.

Q: What about the “Number of patients with BOR SD” value (BRAF.KRAS.VHL (any of gene) WT) of the same compound?
A: Its value is 5.

Q: And the “Number of patients with BOR PD” value (BRAF.NRAS (any of gene) MU)?
A: The value was 0.

Q: And the “Number of patients with BOR PR” value (BRAF.NRAS (any of gene) MU)?
A: Its value is 8.

Q: What about the “Number of patients with BOR SD” value (BRAF.NRAS (any of gene) MU) of the same compound?
A: The value was 1.

Q: What about the “Number of patients with BOR PD” value (BRAF.NRAS (any of gene) WT) of the same compound?
A: The value was 2.

Q: What about the “Number of patients with BOR PR” value (BRAF.NRAS (any of gene) WT) of the same compound?
A: The value was 5.

Q: And the “Number of patients with BOR SD” value (BRAF.NRAS (any of gene) WT)?
A: Its value is 6.

Q: What about the “Number of patients with BOR PD” value (BRAF.VHL (any of gene) MU) of the same compound?
A: The value was 2.

Q: What about the “Number of patients with BOR PR” value (BRAF.VHL (any of gene) MU) of the same compound?
A: Its value is 6.

Q: What about the “Number of patients with BOR SD” value (BRAF.VHL (any of gene) MU) of the same compound?
A: Its value is 0.

Q: What about the “Number of patients with BOR PD” value (BRAF.VHL (any of gene) WT) of the same compound?
A: The value was 0.

Q: What about the “Number of patients with BOR PR” value (BRAF.VHL (any of gene) WT) of the same compound?
A: The value was 10.

Q: And the “Number of patients with BOR SD” value (BRAF.VHL (any of gene) WT)?
A: The value was 5.

Q: What about the “Number of patients with BOR PD” value (KRAS.NRAS (any of gene) MU) of the same compound?
A: Its value is 0.

Q: What about the “Number of patients with BOR PR” value (KRAS.NRAS (any of gene) MU) of the same compound?
A: Its value is 8.

Q: And the “Number of patients with BOR SD” value (KRAS.NRAS (any of gene) MU)?
A: Its value is 0.

Q: And the “Number of patients with BOR PD” value (KRAS.NRAS (any of gene) WT)?
A: The value was 2.

Q: What about the “Number of patients with BOR PR” value (KRAS.NRAS (any of gene) WT) of the same compound?
A: Its value is 5.

Q: And the “Number of patients with BOR SD” value (KRAS.NRAS (any of gene) WT)?
A: Its value is 7.

Q: What about the “Number of patients with BOR PD” value (KRAS.NRAS.VHL (any of gene) MU) of the same compound?
A: Its value is 1.

Q: And the “Number of patients with BOR PR” value (KRAS.NRAS.VHL (any of gene) MU)?
A: Its value is 8.

Q: What about the “Number of patients with BOR SD” value (KRAS.NRAS.VHL (any of gene) MU) of the same compound?
A: Its value is 0.

Q: What about the “Number of patients with BOR PD” value (KRAS.NRAS.VHL (any of gene) WT) of the same compound?
A: The value was 1.

Q: What about the “Number of patients with BOR PR” value (KRAS.NRAS.VHL (any of gene) WT) of the same compound?
A: Its value is 5.

Q: And the “Number of patients with BOR SD” value (KRAS.NRAS.VHL (any of gene) WT)?
A: Its value is 7.

Q: What about the “Patients with partial response (PR)” value (patients with either an NRAS or KRAS mutation) of the same compound?
A: Its value is 8 out of 8.

Q: What about the “Patients with partial response (PR)” value (patients without mutations in NRAS and KRAS) of the same compound?
A: The value was 5 out of 14.

Q: What about the “Clinical outcome in differentiated thyroid cancer patients” value (phase II) of the same compound?
A: The value was “Tumor response and prolonged disease stabilization were observed”.
